Measured values from patent US10772893B2, “2-(morpholin-4-yl)-1,7-naphthyridines” (BAYER PHARMA AKTIENGESELLSCHAFT, priority 2014, dated 2020).
Counter-ions that a name gives are not always drawn.

Legend:
Test in all cases: Proliferation assay, crystal violet staining
[1] = system: Caco-2 cells; type: cell-based; details: Homo sapiens, Caco-2, 96 h, 4 days incubation, read-out: Inhibition of Caco-2 cell proliferation
Description: (§1) After 24 hours, the cells of one plate (zero plate) were dyed with crystal violet (see below), whereas the medium of the other plates was replaced with fresh culture medium (200 μl) to which the test substances were added in various concentrations (0 μM, and also in the range of 0.001-10 μM; the final concentration of the solvent dimethyl sulphoxide was 0.1 or 0.5%). The cells were incubated for 4 days in the presence of the test substances. […] After washing the fixed cells three times with water, the plates were dried at room temperature. The cells were stained by adding 100 μl/measurement point of a 0.1% strength crystal violet solution (pH adjusted to pH 3 by adding acetic acid). After washing the cells three times with water, the plates were dried at room temperature. The dye was dissolved by adding 100 μl/measurement point of a 10% strength acetic acid solution. […] The percentage change in cell growth was calculated by normalizing the measured values to the absorbance values of the zero plate (=0%) and the absorbance of the untreated (0 W) cells (=100%). The IC50 values were determined by means of a four parameter fit.

[2] = system: HeLa-MaTu-ADR cells; type: cell-based; details: Homo sapiens, 96 h, 4 days incubation, read-out: Inhibition of HeLa-MaTu-ADR cell proliferation
Description: as §1

[3] = system: NCI-H460 cells; details: Homo sapiens, NCI-H460, 96 h, read-out: Inhibition of NCI-H460 cell proliferation, NCI-H460 cells, 4 days incubation
Description: as §1

[4] = system: DU145 cells; details: Homo sapiens, DU-145, 96 h, read-out: Inhibition of DU145 cell proliferation, DU145 cells, 4 days incubation
Description: as §1

[5] = system: HeLa cells; details: Homo sapiens, 96 h, read-out: Inhibition of HeLa cell proliferation, HeLa cells, 4 days incubation

| SMILES | IC50 [1] [nM] | IC50 [2] [nM] | IC50 [3] [nM] | IC50 [4] [nM] | IC50 [5] [nM] |
| --- | --- | --- | --- | --- | --- |
| CS(=O)(=O)c1ccc(-c2cc(N3CCOCC3)nc3c(-c4cc[nH]n4)nccc23)cc1 [Example 7, 4-(4-methanesulphonylphenyl)-2-(morpholin-4-yl)-8-(1H-pyrazol-3-yl)-[1,7]naphthyridine] | 5950 | – | 1020 | 1590 | 1330 |
| C=C(C)c1cc(N2CCOCC2)nc2c(-c3cc[nH]n3)nccc12 [Example 10, 4-Isopropenyl-2-(morpholin-4-yl)-8-(1H-pyrazol-3-yl)-[1,7]naphthyridine] | 1460 | 1300 | 447 | 827 | 496 |
| C[C@@H]1COCCN1c1cc(-c2cccc(S(C)(=N)=O)c2)c2ccnc(-c3ccn[nH]3)c2n1 (stereo partly drawn) [Example 31, 3-[2-((R)-3-methylmorpholin-4-yl)-8-(2H-pyrazol-3-yl)-[1,7]naphthyridine-4-yl]phenyl-S-methylsulphoximide] | > 3000 | > 3000 | 685 | 1110 | 1250 |
| CS(=O)(=O)c1cc(N2CCOCC2)nc2c(-c3cc[nH]n3)nccc12 [Example 32] | > 3000 | > 3000 | > 3000 | 1840 | 1560 |
| N#Cc1cc(N2CCOCC2)nc2c(-c3cc[nH]n3)nccc12 [Example 34, 2-(morpholin-4-yl)-8-(1H-pyrazol-3-yl)-[1,7]naphthyridine-4-carbonitrile] | 4990 | > 3000 | 1630 | 2390 | 1020 |
| CC(C)Oc1cc(N2CCOCC2)nc2c(-c3cc[nH]n3)nccc12 [Example 40, 4-Isopropoxy-2-(morpholin-4-yl)-8-(1H-pyrazol-3-yl)-[1,7]naphthyridine] | 1970 | 2260 | 672 | 1150 | 2720 |
| COc1cc(N2CCOCC2)nc2c(-c3cc[nH]n3)nccc12 [Example 44, 4-methoxy-2-(morpholin-4-yl)-8-(1H-pyrazol-3-yl)-[1,7]naphthyridine] | 7690 | > 10000 | 2010 | 4450 | 1010 |
| CC(C)Oc1cc(N2CCOC[C@H]2C)nc2c(-c3cc[nH]n3)nccc12 [Example 51, 4-Isopropoxy-2-((R)-3-methylmorpholin-4-yl)-8-(1H-pyrazol-3-yl)-[1,7]naphthyridine] | 2930 | 1800 | 391 | 895 | 1230 |
| CSc1cc(N2CCOC[C@H]2C)nc2c(-c3ccn[nH]3)nccc12 [Example 63, 2-[(3R)-3-methylmorpholin-4-yl]-4-(methylsulfanyl)-8-(1H-pyrazol-5-yl)-1,7-naphthyridine] | 1540 | 1530 | 308 | 915 | – |
| C[C@@H]1COCCN1c1cc(-c2ccc(S(C)(=O)=O)cc2F)c2ccnc(-c3ccn[nH]3)c2n1 [Example 74, 4-[2-fluoro-4-(methylsulfonyl)phenyl]-2-[(3R)-3-methylmorpholin-4-yl]-8-(1H-pyrazol-5-yl)-1,7-naphthyridine] | > 1000 | > 1000 | > 1000 | > 1000 | 203 |
| Cc1cc(S(C)(=O)=O)ncc1-c1cc(N2CCOC[C@H]2C)nc2c(-c3ccn[nH]3)nccc12 [Example 79, 4-[4-methyl-6-(methylsulfonyl)pyridin-3-yl]-2-[(3R)-3-methylmorpholin-4-yl]-8-(1H-pyrazol-5-yl)-1,7-naphthyridine] | 868 | 2300 | 93.7 | 656 | 303 |
| C[C@@H]1COCCN1c1cc(N=S2(=O)CCCC2)c2ccnc(-c3ccn[nH]3)c2n1 [Example 137, N-{2-[(3R)-3-methylmorpholin-4-yl]-8-(1H-pyrazol-5-yl)-1,7-naphthyridin-4-yl}tetrahydro-1H-1λ^4-thiophen-1-imine 1-oxide] | 549 | 791 | 153 | 146 | 383 |

The remaining lines, values ahead:

| IC50 [1] [nM] | IC50 [2] [nM] | IC50 [3] [nM] | IC50 [4] [nM] | IC50 [5] [nM] | SMILES |
| --- | --- | --- | --- | --- | --- |
| 2190 | > 3000 | 641 | 368 | – | CN=S(C)(=O)c1ccc(-c2cc(N3CCOCC3)nc3c(-c4ccn[nH]4)nccc23)cc1 (stereo not shown) [Example 5, 4-(4-(N,S-dimethylsulfonimidoyl)phenyl)-2-[morpholin-4-yl]-8-(1H-pyrazol-5-yl)-1,7-naphthyridine] |
| > 3000 | > 3000 | 909 | 2050 | 2260 | CS(=O)(=O)c1ccccc1-c1cc(N2CCOCC2)nc2c(-c3cc[nH]n3)nccc12 [Example 8, 4-(2-methanesulphonylphenyl)-2-(morpholin-4-yl)-8-(1H-pyrazol-3-yl)-[1,7]naphthyridine Hydrochloride] |
| 1720 | > 3000 | 528 | 817 | 1410 | CS(=O)(=O)c1cccc(-c2cc(N3CCOCC3)nc3c(-c4cc[nH]n4)nccc23)c1 [Example 15, 4-(3-methanesulphonylphenyl)-2-(morpholin-4-yl)-8-(1H-pyrazol-3-yl)-[1,7]naphthyridine] |
| 833 | 3410 | 378 | 1350 | – | CS(=O)(=O)c1ccc(-c2cc(N3CCOCC3)nc3c(-c4ccn[nH]4)nccc23)c(F)c1 [Example 24] |
| > 1000 | > 1000 | 586 | 725 | 296 | C[C@@H]1COCCN1c1cc(-c2ccc(S(C)(=O)=O)cc2)c2ccnc(-c3cc[nH]n3)c2n1 [Example 26, 4-(4-methanesulphonylphenyl)-2-((R)-3-methylmorpholin-4-yl)-8-(2H-pyrazol-3-yl)-[1,7]naphthyridine] |
| 577 | 498 | 243 | 291 | 394 | C[C@@H]1COCCN1c1cc(C2CC2)c2ccnc(-c3cc[nH]n3)c2n1 [Example 29] |
| 2890 | > 3000 | 293 | 325 | 512 | C[C@@H]1COCCN1c1cc(-c2ccc(S(C)(=N)=O)cc2)c2ccnc(-c3ccn[nH]3)c2n1 (stereo partly drawn) [Example 30, 4-[2-((R)-3-methylmorpholin-4-yl)-8-(2H-pyrazol-3-yl)-[1,7]naphthyridine-4-yl]phenyl-S-methylsulphoximide] |
| 653 | > 3000 | 269 | 1010 | – | C[C@@H]1COCCN1c1cc(S(C)(=O)=O)c2ccnc(-c3ccn[nH]3)c2n1 [Example 33, 2-[(3R)-3-methylmorpholin-4-yl]-4-(methylsulfonyl)-8-(1H-pyrazol-5-yl)-1,7-naphthyridine] |
| 1980 | 2170 | 691 | 730 | 998 | c1cc2c(C3CCOCC3)cc(N3CCOCC3)nc2c(-c2cc[nH]n2)n1 [Example 60, 2-(morpholin-4-yl)-8-(1H-pyrazol-5-yl)-4-(tetrahydro-2H-pyran-4-yl)-1,7-naphthyridine] |
| 844 | 1170 | 92.3 | 506 | – | C[C@@H]1COCCN1c1cc(N=S2(=O)CCOCC2)c2ccnc(-c3ccn[nH]3)c2n1 [Example 64, N-{2-[(3R)-3-methylmorpholin-4-yl]-8-(1H-pyrazol-5-yl)-1,7-naphthyridin-4-yl}-1,4λ^4-oxathian-4-imine 4-oxide] |
| 631 | 1790 | 59 | 748 | 181 | Cc1nc(S(C)(=O)=O)ccc1-c1cc(N2CCOC[C@H]2C)nc2c(-c3ccn[nH]3)nccc12 [Example 73, 4-[2-methyl-6-(methylsulfonyl)pyridin-3-yl]-2-[(3R)-3-methylmorpholin-4-yl]-8-(1H-pyrazol-5-yl)-1,7-naphthyridine] |
| 286 | 291 | 81.7 | 104 | 157 | Cc1ccc(-c2cc(N3CCOC[C@H]3C)nc3c(-c4ccn[nH]4)nccc23)cn1 [Example 88, 2-[(3R)-3-methylmorpholin-4-yl]-4-(6-methylpyridin-3-yl)-8-(1H-pyrazol-5-yl)-1,7-naphthyridine] |
| 340 | 595 | 88.4 | 94 | 170 | CCS(=O)(CC)=Nc1cc(N2CCOC[C@H]2C)nc2c(-c3ccn[nH]3)nccc12 [Example 126, 4-{[diethyl(oxido)-λ^6-sulfanylidene]amino}-2-[(3R)-3-methylmorpholin-4-yl]-8-(1H-pyrazol-5-yl)-1,7-naphthyridine] |
| 492 | 522 | 90.6 | 30.5 | 248 | C[C@@H]1COCCN1c1cc(N2CCOCC2)c2ccnc(-c3ccn[nH]3)c2n1 [Example 145, 2-[(3R)-3-methylmorpholin-4-yl]-4-(morpholin-4-yl)-8-(1H-pyrazol-5-yl)-1,7-naphthyridine] |
| > 3000 | > 3000 | – | – | 731 | c1cc(-c2nccc3c(N4CCn5ccnc5C4)cc(N4CCOCC4)nc23)[nH]n1 [Example 169, 4-(5,6-dihydroimidazo[1,2-a]pyrazin-7(8H)-yl)-2-(morpholin-4-yl)-8-(1H-pyrazol-5-yl)-1,7-naphthyridine] |
